Measured values published in publication PMC3694096, “Development of Novel In Vivo Chemical Probes to Address CNS Protein Kinase Involvement in Synaptic Dysfunction” (PLoS ONE, 2013).
Read-outs that look alike come from different tables or passages of the source.

Key:
Arg(m) = molecular target: T1, Arg(m) (Mus musculus, UniProt Q4JIM5); test: Kinome profiler screen; type: biochemical; conditions: at 20,000 nM inhibitor; kinase activity remaining
T1 construct: purchased Millipore KinaseProfiler

Ret (V804L) = molecular target: T2, Ret (V804L) (Homo sapiens, UniProt P07949, V804L); test: Kinome profiler screen; type: biochemical; conditions: at 20,000 nM inhibitor; kinase activity remaining
T2 construct: purchased Millipore KinaseProfiler

ASK1 = molecular target: T3, ASK1 (Homo sapiens, UniProt Q99683); test: Kinome profiler screen; type: biochemical; conditions: at 20,000 nM inhibitor; kinase activity remaining
T3 construct: purchased Millipore KinaseProfiler

MSK1 = molecular target: T4, MSK1 (Homo sapiens, UniProt O75582); test: Kinome profiler screen; type: biochemical; conditions: at 20,000 nM inhibitor; kinase activity remaining
T4 construct: purchased Millipore KinaseProfiler

Tec(h) activated = molecular target: T5, Tec(h) activated (Homo sapiens, UniProt P42680); test: Kinome profiler screen; type: biochemical; conditions: at 20,000 nM inhibitor; kinase activity remaining
T5 construct: purchased Millipore KinaseProfiler

RIPK2 = molecular target: T6, RIPK2 (Homo sapiens, UniProt O43353); test: Kinome profiler screen; type: biochemical; conditions: at 20,000 nM inhibitor; kinase activity remaining
T6 construct: purchased Millipore KinaseProfiler

PI3K-C2α = molecular target: T7, PI3K-C2α (Homo sapiens, UniProt O00443); test: Kinome profiler screen; type: biochemical; conditions: for activity at 20 µM: at 20,000 nM inhibitor, kinase activity remaining
T7 construct: purchased Millipore
T7 sequence (O00443 whole entry): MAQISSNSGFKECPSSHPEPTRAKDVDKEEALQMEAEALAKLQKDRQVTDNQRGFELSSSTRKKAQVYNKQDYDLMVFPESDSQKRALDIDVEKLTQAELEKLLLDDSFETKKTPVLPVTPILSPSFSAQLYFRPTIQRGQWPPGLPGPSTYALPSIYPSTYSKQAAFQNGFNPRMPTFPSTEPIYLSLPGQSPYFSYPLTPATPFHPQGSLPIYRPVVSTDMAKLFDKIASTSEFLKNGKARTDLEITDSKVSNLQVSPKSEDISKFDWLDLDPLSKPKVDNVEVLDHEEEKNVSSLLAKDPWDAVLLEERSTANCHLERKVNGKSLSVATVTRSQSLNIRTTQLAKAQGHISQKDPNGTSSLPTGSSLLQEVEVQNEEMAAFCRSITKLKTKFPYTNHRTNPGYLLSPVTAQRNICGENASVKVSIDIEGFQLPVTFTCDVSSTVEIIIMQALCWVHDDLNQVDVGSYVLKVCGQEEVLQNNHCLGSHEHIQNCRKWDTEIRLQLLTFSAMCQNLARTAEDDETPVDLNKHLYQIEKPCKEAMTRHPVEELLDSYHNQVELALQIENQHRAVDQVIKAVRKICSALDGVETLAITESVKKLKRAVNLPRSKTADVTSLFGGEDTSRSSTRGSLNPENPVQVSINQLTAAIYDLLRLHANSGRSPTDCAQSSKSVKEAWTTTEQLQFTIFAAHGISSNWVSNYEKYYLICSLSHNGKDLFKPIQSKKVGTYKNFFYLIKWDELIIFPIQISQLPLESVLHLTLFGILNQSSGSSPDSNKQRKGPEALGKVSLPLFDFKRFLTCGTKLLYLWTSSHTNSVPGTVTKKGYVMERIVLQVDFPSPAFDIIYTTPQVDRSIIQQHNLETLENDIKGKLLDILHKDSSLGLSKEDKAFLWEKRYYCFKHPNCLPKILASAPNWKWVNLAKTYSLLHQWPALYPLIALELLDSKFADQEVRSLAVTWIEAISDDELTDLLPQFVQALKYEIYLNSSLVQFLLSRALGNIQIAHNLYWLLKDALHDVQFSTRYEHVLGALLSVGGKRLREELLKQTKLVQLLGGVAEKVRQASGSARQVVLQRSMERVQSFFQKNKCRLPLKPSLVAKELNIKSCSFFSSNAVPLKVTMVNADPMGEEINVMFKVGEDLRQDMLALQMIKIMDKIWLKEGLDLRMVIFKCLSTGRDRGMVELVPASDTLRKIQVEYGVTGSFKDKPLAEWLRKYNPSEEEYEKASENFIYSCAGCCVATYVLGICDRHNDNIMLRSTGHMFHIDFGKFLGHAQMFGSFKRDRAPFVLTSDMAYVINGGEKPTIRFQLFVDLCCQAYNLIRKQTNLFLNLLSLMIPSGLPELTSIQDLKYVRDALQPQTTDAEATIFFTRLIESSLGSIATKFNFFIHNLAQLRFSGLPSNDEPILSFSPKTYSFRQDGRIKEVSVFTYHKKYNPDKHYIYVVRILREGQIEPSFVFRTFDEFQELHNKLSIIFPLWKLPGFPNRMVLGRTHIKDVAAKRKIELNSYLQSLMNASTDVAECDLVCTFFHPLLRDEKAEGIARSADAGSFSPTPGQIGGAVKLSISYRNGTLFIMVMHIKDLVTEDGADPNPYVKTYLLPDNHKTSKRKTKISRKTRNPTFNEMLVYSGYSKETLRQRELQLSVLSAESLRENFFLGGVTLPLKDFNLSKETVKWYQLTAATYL

DYRK2 = molecular target: T8, DYRK2 (Homo sapiens, UniProt Q92630); test: Kinome profiler screen; type: biochemical; conditions: at 20,000 nM inhibitor; kinase activity remaining
T8 construct: purchased Millipore KinaseProfiler

Lck = molecular target: T9, Lck (Homo sapiens, UniProt P06239); test: Kinome profiler screen; type: biochemical; conditions: at 20,000 nM inhibitor; kinase activity remaining
T9 construct: purchased Millipore KinaseProfiler

IRAK4 = molecular target: T10, IRAK4 (Homo sapiens, UniProt Q9NWZ3); test: Kinome profiler screen; type: biochemical; conditions: at 20,000 nM inhibitor; kinase activity remaining
T10 construct: purchased Millipore KinaseProfiler

CaMKIV = molecular target: T11, CaMKIV (Homo sapiens, UniProt Q16566); test: Kinome profiler screen; type: biochemical; conditions: at 20,000 nM inhibitor; kinase activity remaining
T11 construct: purchased Millipore KinaseProfiler
T11 sequence (Q16566 whole entry): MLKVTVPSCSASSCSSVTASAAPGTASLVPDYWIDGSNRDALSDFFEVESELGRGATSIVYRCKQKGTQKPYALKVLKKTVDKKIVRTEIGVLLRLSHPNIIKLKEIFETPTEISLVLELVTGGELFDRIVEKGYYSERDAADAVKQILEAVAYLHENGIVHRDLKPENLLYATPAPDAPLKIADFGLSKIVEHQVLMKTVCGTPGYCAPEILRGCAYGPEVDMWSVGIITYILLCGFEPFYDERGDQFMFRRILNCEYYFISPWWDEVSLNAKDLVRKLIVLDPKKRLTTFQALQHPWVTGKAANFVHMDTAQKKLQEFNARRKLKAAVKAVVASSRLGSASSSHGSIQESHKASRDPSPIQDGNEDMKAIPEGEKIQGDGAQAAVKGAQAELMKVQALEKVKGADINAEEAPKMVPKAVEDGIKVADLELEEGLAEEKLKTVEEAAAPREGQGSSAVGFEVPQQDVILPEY

BTK = molecular target: T12, BTK (Homo sapiens, UniProt Q06187); test: Kinome profiler screen; type: biochemical; conditions: at 20,000 nM inhibitor; kinase activity remaining
T12 construct: purchased Millipore KinaseProfiler

NEK6 = molecular target: T13, NEK6 (Homo sapiens, UniProt Q9HC98); test: Kinome profiler screen; type: biochemical; conditions: at 20,000 nM inhibitor; kinase activity remaining
T13 construct: purchased Millipore KinaseProfiler

Pyk2 = molecular target: T14, Pyk2 (Homo sapiens, UniProt Q14289); test: Kinome profiler screen; type: biochemical; conditions: at 20,000 nM inhibitor; kinase activity remaining
T14 construct: purchased Millipore KinaseProfiler

IR, activated = molecular target: T15, IR, activated (Homo sapiens, UniProt P06213); test: Kinome profiler screen; type: biochemical; conditions: at 20,000 nM inhibitor; kinase activity remaining
T15 construct: purchased Millipore KinaseProfiler

Chemical stability = type: physicochemical
Experimental: Aqueous solubility (logS) and chemical stability were determined as previously described. Briefly, solutions for aqueous solubility (log S) determination were made by gravimetric methods using a Sartorius AG (Germany) BP 211 D analytical balance. Dry borosilicate capillary tubes (Büchi, Switzerland) were weighed and various amounts of compound (ranging from 1.2–1.5 mg) or the hydrochloride hydrate form (ranging from 10–20 mg) were added to the tared tubes, then water added to create solutions ranging in concentrations from […]. Tubes containing the samples were mixed to ensure wetting and incubated at 37°C for 24 h. Aliquots were collected from each tube, centrifuged at 12,000 g-min, and analyzed by HPLC. Concentrations were calculated using area under the peak (260 nm) at the appropriate retention time relative to a standard curve obtained from serial dilutions of each purified compound. […]. The co-solvent was methanol, experimental pH range was 1.7–10.0, temperature was 22±2°C, ionic strength was 0.15 M KCl. Five titrations were used to calculate the pKa using the Yasuda-Shedlovsky technique. […].

BV-2 cells = test: IL-1β production in BV-2 cells stimulated with TLR ligands; type: cell-based, murine; conditions: ligands for TLR2, TLR4, TLR7/8, TLR9
Rsk4 = molecular target: T16, Rsk4 (Homo sapiens, UniProt Q9UK32); test: Kinome profiler screen; type: biochemical; conditions: at 20,000 nM inhibitor; kinase activity remaining
T16 construct: purchased Millipore KinaseProfiler

Abl(T315I) = molecular target: T17, Abl(T315I) (Homo sapiens, UniProt P00519, T315I); test: Kinome profiler screen; type: biochemical; conditions: at 20,000 nM inhibitor; kinase activity remaining
T17 construct: purchased Millipore KinaseProfiler

IR = molecular target: T18, IR (Homo sapiens, UniProt P06213); test: Kinome profiler screen; type: biochemical; conditions: at 20,000 nM inhibitor; kinase activity remaining
T18 construct: purchased Millipore KinaseProfiler

cKit(V560G) = molecular target: T19, cKit(V560G) (Homo sapiens, UniProt P10721, V560G); test: Kinome profiler screen; type: biochemical; conditions: at 20,000 nM inhibitor; kinase activity remaining
T19 construct: purchased Millipore KinaseProfiler

Aurora-A = molecular target: T20, Aurora-A (Homo sapiens, UniProt O14965); test: Kinome profiler screen; type: biochemical; conditions: at 20,000 nM inhibitor; kinase activity remaining
T20 construct: purchased Millipore KinaseProfiler
T20 sequence (O14965 whole entry): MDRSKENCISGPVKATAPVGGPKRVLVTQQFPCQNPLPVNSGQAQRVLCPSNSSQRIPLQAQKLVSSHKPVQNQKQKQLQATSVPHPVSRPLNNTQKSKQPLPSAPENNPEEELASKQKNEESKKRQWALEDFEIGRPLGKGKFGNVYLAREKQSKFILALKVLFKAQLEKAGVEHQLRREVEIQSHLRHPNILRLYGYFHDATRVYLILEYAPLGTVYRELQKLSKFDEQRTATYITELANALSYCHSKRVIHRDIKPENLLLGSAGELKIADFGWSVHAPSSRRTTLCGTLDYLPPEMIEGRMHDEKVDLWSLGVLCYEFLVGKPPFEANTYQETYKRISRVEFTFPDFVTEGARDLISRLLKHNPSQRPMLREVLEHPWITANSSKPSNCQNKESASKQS

Plk3 = molecular target: T21, Plk3 (Homo sapiens, UniProt Q9H4B4); test: Kinome profiler screen; type: biochemical; conditions: at 20,000 nM inhibitor; kinase activity remaining
T21 construct: purchased Millipore KinaseProfiler

CDK1/cyclinB = molecular target: T22, CDK1/cyclinB (Homo sapiens, UniProt P06493); test: Kinome profiler screen; type: biochemical; conditions: at 20,000 nM inhibitor; kinase activity remaining
T22 construct: purchased Millipore KinaseProfiler

TLK2 = molecular target: T23, TLK2 (Homo sapiens, UniProt Q86UE8); test: Kinome profiler screen; type: biochemical; conditions: at 20,000 nM inhibitor; kinase activity remaining
T23 construct: purchased Millipore KinaseProfiler

STK33 = molecular target: T24, STK33 (Homo sapiens, UniProt Q9BYT3); test: Kinome profiler screen; type: biochemical; conditions: at 20,000 nM inhibitor; kinase activity remaining
T24 construct: purchased Millipore KinaseProfiler
T24 sequence (Q9BYT3 whole entry): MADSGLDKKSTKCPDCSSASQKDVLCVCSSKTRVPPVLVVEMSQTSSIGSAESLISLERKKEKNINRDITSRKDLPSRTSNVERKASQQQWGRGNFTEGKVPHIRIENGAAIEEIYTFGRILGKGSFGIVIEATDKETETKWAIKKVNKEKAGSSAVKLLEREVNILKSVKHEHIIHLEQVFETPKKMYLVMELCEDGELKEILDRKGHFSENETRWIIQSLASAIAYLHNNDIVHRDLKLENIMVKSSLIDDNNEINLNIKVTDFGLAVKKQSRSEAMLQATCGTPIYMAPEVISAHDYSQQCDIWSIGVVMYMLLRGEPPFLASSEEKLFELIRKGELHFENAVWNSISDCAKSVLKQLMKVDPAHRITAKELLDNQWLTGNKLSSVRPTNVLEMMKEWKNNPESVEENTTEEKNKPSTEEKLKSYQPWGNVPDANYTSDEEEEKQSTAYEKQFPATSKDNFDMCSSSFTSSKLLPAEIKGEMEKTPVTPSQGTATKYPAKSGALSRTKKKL

MARK1 = molecular target: T25, MARK1 (Homo sapiens, UniProt Q9P0L2); test: Kinome profiler screen; type: biochemical; conditions: at 20,000 nM inhibitor; kinase activity remaining
T25 construct: purchased Millipore KinaseProfiler

Met(Y1248C) = molecular target: T26, Met(Y1248C) (Homo sapiens, UniProt P08581, Y1230C); test: Kinome profiler screen; type: biochemical; conditions: at 20,000 nM inhibitor; kinase activity remaining
T26 construct: purchased Millipore KinaseProfiler

CaMKIδ = molecular target: T27, CaMKIδ (Homo sapiens, UniProt Q8IU85); test: Kinome profiler screen; type: biochemical; conditions: at 20,000 nM inhibitor; kinase activity remaining
T27 construct: purchased Millipore KinaseProfiler

Flt1 = molecular target: T28, Flt1 (Homo sapiens, UniProt P17948); test: Kinome profiler screen; type: biochemical; conditions: for activity at 20 µM: at 20,000 nM inhibitor, kinase activity remaining
T28 construct: purchased Millipore
T28 sequence (P17948 27-1338): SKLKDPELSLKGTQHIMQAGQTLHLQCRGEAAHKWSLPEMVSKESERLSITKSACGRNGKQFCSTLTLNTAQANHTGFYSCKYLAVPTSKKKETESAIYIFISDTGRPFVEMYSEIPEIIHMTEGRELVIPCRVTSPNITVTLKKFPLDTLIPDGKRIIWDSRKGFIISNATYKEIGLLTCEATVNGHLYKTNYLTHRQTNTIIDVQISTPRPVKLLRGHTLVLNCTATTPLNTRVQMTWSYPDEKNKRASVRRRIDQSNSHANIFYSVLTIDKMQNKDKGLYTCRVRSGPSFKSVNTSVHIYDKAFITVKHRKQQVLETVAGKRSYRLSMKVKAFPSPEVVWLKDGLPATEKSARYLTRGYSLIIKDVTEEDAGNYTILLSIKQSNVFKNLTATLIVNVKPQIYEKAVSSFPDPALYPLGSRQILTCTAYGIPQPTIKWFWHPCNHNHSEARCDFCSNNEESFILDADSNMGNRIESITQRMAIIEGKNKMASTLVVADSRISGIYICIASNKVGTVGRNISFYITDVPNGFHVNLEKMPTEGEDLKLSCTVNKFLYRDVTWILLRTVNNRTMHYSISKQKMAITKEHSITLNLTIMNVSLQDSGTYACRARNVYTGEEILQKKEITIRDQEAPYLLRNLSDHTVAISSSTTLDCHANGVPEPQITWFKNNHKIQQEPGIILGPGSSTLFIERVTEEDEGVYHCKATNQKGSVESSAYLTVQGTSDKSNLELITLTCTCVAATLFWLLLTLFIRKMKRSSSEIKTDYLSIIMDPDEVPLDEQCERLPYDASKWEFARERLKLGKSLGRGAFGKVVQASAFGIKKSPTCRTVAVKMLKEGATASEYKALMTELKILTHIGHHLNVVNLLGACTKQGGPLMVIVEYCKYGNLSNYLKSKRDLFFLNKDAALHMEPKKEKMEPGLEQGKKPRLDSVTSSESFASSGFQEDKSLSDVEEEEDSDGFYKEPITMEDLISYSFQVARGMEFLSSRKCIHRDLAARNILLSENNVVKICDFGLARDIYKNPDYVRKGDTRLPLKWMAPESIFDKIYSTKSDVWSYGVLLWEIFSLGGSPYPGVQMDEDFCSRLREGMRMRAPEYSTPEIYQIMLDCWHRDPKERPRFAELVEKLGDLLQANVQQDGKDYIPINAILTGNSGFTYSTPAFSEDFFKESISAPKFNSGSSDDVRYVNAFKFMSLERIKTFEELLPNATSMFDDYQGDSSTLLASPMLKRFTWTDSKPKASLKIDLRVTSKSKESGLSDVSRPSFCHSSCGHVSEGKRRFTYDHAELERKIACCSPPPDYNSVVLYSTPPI

Hck = molecular target: T29, Hck (Homo sapiens, UniProt P08631); test: Kinome profiler screen; type: biochemical; conditions: at 20,000 nM inhibitor; kinase activity remaining
T29 construct: purchased Millipore KinaseProfiler

SRPK1 = molecular target: T30, SRPK1 (Homo sapiens, UniProt Q96SB4); test: Kinome profiler screen; type: biochemical
T30 construct: purchased Millipore KinaseProfiler

PDGFRα(V561D) = molecular target: T31, PDGFRα(V561D) (Homo sapiens, UniProt P16234, V561D); test: Kinome profiler screen; type: biochemical
T31 construct: purchased Millipore KinaseProfiler

c-RAF = molecular target: T32, c-RAF (Homo sapiens, UniProt P04049); test: Kinome profiler screen; type: biochemical; conditions: for activity at 20 µM: at 20,000 nM inhibitor, kinase activity remaining
T32 construct: purchased Millipore
T32 sequence (P04049 whole entry): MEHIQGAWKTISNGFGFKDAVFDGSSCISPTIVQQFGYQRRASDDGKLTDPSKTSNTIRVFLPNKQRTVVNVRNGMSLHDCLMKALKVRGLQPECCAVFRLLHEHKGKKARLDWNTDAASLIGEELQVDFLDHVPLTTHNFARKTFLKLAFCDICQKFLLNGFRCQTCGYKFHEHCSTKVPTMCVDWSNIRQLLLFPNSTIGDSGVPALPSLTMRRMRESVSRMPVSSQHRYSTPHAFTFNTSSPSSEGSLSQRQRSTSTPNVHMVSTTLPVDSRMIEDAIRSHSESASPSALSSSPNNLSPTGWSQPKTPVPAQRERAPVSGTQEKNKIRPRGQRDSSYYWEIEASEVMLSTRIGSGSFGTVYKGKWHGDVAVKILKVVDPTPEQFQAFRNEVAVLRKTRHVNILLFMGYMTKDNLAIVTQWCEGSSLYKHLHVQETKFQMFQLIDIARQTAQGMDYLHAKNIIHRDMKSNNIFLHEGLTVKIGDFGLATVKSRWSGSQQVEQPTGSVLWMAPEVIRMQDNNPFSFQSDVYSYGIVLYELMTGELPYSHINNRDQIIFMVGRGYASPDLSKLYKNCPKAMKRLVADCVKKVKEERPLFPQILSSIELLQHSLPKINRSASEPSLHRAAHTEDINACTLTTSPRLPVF

Fms = molecular target: T33, Fms (Homo sapiens, UniProt P07333); test: Kinome profiler screen; type: biochemical; conditions: at 20,000 nM inhibitor; kinase activity remaining
T33 construct: purchased Millipore KinaseProfiler

CK1γ3 = molecular target: T34, CK1γ3 (Homo sapiens, UniProt Q9Y6M4); test: Kinome profiler screen; type: biochemical; conditions: at 20,000 nM inhibitor; kinase activity remaining
T34 construct: purchased Millipore KinaseProfiler

FGFR4 = molecular target: T35, FGFR4 (Homo sapiens, UniProt P22455); test: Kinome profiler screen; type: biochemical; conditions: at 20,000 nM inhibitor; kinase activity remaining
T35 construct: purchased Millipore KinaseProfiler

Rse = molecular target: T36, Rse (Homo sapiens, UniProt Q06418); test: Kinome profiler screen; type: biochemical; conditions: at 20,000 nM inhibitor; kinase activity remaining
T36 construct: purchased Millipore KinaseProfiler

[1] = at 20,000 nM inhibitor, kinase activity remaining, read-out: % Activity

Structure (SMILES): CN(C)c1cc(-c2ccncc2)c(-c2ccc3ccccc3c2)nn1 [MW108, N, N-dimethyl-6-(naphthalen-2-yl)-5-(pyridin-4-yl)pyridazin-3-amine]
- activity at 20 µM (Arg(m)): 86%
- activity at 20 µM (Ret (V804L)): 102%
- activity at 20 µM (ASK1): 103%
- activity at 20 µM (MSK1): 97%
- activity at 20 µM (Tec(h) activated): 89%
- activity at 20 µM (RIPK2): 57%
- IC50 (PI3K-C2α): > 30 µM
- activity at 20 µM (PI3K-C2α): 29%
- activity at 20 µM (DYRK2): 108%
- activity at 20 µM (Lck): 62%
- activity at 20 µM (IRAK4): 91%
- activity at 20 µM (CaMKIV): 100%
- activity at 20 µM (BTK): 97%
- activity at 20 µM (NEK6): 103%
- activity at 20 µM (Pyk2): 106%
- activity at 20 µM (IR, activated): 103%
- Chemical Stability (37ºC; 24 hrs) (Chemical stability; 24 h, 0.0015 M): stable in neutral, base (pH 13), acid (pH 2)
- IL-1β production with diverse TLR ligands (BV-2 cells): suppressed IL-1β production
- activity at 20 µM (Rsk4): 96%
- activity at 20 µM (Abl(T315I)): 91%
- activity at 20 µM (IR): 100%
- activity at 20 µM (cKit(V560G)): 95%
- activity at 20 µM (Aurora-A): 118%
- activity at 20 µM (Plk3): 103%
- activity at 20 µM (CDK1/cyclinB): 90%
- activity at 20 µM (TLK2): 99%
- activity at 20 µM (STK33): 106%
- activity at 20 µM (MARK1): 113%
- activity at 20 µM (Met(Y1248C)): 84%
- activity at 20 µM (CaMKIδ): 97%
- IC50 (Flt1): > 30 µM
- activity at 20 µM (Flt1): 38%
- activity at 20 µM (Hck): 93%
- activity at 20 µM (SRPK1): 114%
- activity at 20 µM (PDGFRα(V561D)): 114%
- IC50 (c-RAF): 9.12 µM
- activity at 20 µM (c-RAF): 27%
- activity at 20 µM (Fms): 98%
- activity at 20 µM (CK1γ3): 100%
- activity at 20 µM (FGFR4): 89%
- activity at 20 µM (Rse): 117%

Structure (SMILES): CN(C)c1cc(-c2ccncc2)c(-c2cccc3ccccc23)nn1 [MW181, N,N-dimethyl-6-(naphthalen-1-yl)-5-(pyridin-4-yl)pyridazin-3-amine]
- activity at 20 µM (Arg(m)): 96%
- activity at 20 µM (Ret (V804L)): 102%
- activity at 20 µM (ASK1): 109%
- activity at 20 µM (MSK1): 106%
- activity at 20 µM (Tec(h) activated): 98%
- activity at 20 µM (RIPK2): 84%
- activity at 20 µM (PI3K-C2α): 99%
- activity at 20 µM (DYRK2): 109%
- activity at 20 µM (Lck): 89%
- activity at 20 µM (IRAK4): 100%
- activity at 20 µM (CaMKIV): 105%
- activity at 20 µM (BTK): 98%
- activity at 20 µM (NEK6): 92%
- activity at 20 µM (Pyk2): 101%
- activity at 20 µM (IR, activated): 100%
- Chemical Stability (37ºC; 24 hrs) (Chemical stability; neutral, base (pH 13), acid (pH 2)): stable in neutral, base (pH 13), acid (pH 2)
- IL-1β production with diverse TLR ligands (BV-2 cells): suppressed IL-1β production
- activity at 20 µM (Rsk4): 105%
- activity at 20 µM (Abl(T315I)): 107%
- activity at 20 µM (IR): 112%
- activity at 20 µM (cKit(V560G)): 71%
- activity at 20 µM (Aurora-A): 113%
- activity at 20 µM (Plk3): 92%
- activity at 20 µM (CDK1/cyclinB): 113%
- activity at 20 µM (TLK2): 107%
- activity at 20 µM (STK33): 99%
- activity at 20 µM (MARK1): 102%
- activity at 20 µM (Met(Y1248C)): 100%
- activity at 20 µM (CaMKIδ): 103%
- activity at 20 µM (Flt1): 96%
- activity at 20 µM (Hck): 84%
- activity at 20 µM (SRPK1; [1]): 103%
- activity at 20 µM (PDGFRα(V561D); [1]): 103%
- activity at 20 µM (c-RAF): 70%
- activity at 20 µM (Fms): 85%
- activity at 20 µM (CK1γ3): 105%
- activity at 20 µM (FGFR4): 98%
- activity at 20 µM (Rse): 109%
